This note sets out measurements from patent publication US11814367B2, “Inhibitors of glycogen synthase 1 (GYS1) and methods of use thereof” (Maze Therapeutics, Inc., priority 2021, dated 2023).

For assay [1], the target named is hGYS1 enzyme (recombinant hGYS1/GN1 protein) (Homo sapiens (Human), UniProt P13807). The assay can be described thus: GYS1 coupled enzyme assay (PK/LDH). In kind it is biochemical. The settings on record: hGYS1/GN1 50 nM, UDP-Glucose 0.8 mM, G6P 1 mM; geometric mean of at least 2 runs.
Assay [2] relates to hGYS1 enzyme / glycogen synthesis in HeLa cells. The experiment in a line: GYS1 cell based assay (glycogen synthesis, Glucose-glo). The arrangement: species or system human. The settings on record: Homo sapiens, HeLa, 24 h, 24 h incubation, 20 mM glucose, geometric mean of at least 2 runs. An outline of the steps: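 HeLa cells starved 24 h in medium containing only 1× Glutamax were plated onto compound in medium with 20 mM glucose (1% DMSO final) for 24 h, 37 °C, 5% CO2. Acid lysates were Tris-quenched, glucoamylase-digested (pH 5.3, 1 h, 37 °C) and read by Glucose-glo luminescence. IC50 came from Hill fits, as geometric mean of ≥2 runs.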

Assay [3] deals with hGYS2 enzyme (recombinant hGYS2/GN1 protein) (Homo sapiens (Human), UniProt P54840). The experiment in a line: GYS2 coupled enzyme assay (PK/LDH). The format is biochemical. The settings on record: geometric mean of at least 2 assay runs on separate days, read-out: Avg_IC50. Put shortly: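 hGYS2/GN1 200 nM; UDP-Glc 2 mM; glycogen 0.2%; G6P 2 mM; PEP 2 mM, NADH 0.6 mM, PK/LDH 20 U/mL. 50 mM Tris pH 7.5, MgCl2, KCl, BSA, TCEP, 2.5% DMSO. Kinetic A340, 10 min. IC50 = geomean of ≥2 runs.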
Sequence of hGYS2 enzyme (recombinant hGYS2/GN1 protein) (P54840 whole entry): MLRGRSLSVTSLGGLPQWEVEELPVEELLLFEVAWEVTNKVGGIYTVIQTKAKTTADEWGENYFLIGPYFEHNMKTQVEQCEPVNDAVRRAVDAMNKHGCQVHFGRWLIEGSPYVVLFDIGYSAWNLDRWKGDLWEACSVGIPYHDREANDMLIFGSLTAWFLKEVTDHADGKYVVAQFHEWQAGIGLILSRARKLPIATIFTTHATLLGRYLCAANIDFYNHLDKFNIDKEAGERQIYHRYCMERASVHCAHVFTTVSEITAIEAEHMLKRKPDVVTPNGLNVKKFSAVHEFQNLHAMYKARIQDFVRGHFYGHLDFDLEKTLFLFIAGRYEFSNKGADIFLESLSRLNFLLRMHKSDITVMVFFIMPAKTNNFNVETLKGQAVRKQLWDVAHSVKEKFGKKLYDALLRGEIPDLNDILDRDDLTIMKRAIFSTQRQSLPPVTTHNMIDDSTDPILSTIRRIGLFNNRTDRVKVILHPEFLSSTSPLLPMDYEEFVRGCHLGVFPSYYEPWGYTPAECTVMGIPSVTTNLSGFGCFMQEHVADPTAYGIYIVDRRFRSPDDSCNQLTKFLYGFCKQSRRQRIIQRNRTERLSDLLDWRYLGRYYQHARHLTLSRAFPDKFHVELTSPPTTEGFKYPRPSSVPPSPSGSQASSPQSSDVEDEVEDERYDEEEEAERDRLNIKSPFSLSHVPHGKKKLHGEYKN
Sequence of hGYS2 enzyme (recombinant hGYS2/GN1 protein) (P46976 whole entry partner): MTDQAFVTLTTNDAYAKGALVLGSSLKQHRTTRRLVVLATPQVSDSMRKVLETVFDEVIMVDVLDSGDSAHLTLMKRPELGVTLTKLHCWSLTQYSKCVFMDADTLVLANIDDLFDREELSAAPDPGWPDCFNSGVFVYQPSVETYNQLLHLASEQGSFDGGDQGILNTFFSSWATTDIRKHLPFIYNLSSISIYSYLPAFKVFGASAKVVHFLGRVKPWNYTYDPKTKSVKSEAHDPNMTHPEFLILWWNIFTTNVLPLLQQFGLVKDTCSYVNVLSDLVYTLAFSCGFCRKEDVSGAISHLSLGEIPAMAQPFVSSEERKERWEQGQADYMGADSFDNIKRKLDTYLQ

Sequence of hGYS1 enzyme (recombinant hGYS1/GN1 protein) (P13807 whole entry): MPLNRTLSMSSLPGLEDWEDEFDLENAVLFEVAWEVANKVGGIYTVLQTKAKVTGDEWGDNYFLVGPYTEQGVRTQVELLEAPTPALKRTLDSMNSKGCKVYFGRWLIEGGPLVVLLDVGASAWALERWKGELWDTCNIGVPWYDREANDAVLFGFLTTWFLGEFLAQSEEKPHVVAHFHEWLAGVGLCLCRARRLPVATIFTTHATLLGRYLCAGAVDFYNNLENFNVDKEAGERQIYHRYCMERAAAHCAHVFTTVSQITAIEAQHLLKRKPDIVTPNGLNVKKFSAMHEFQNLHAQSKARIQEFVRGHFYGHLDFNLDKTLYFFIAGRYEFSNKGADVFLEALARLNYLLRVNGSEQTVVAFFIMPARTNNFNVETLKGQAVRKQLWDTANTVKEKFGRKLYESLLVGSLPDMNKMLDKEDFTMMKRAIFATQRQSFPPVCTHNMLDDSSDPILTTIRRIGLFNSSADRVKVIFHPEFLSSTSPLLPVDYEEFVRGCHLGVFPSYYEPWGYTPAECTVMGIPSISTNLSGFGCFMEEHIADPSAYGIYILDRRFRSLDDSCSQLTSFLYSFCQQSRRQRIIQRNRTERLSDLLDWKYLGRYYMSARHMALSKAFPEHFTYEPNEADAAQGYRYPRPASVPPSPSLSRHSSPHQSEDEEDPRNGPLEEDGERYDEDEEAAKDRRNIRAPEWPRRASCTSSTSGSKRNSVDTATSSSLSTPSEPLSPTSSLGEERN
Sequence of hGYS1 enzyme (recombinant hGYS1/GN1 protein) (P46976 whole entry partner): as the sequence (P46976 whole entry partner) above

For `CC(C)c1ccc([C@@H](NC(=O)[C@@H]2C[C@@H](F)CN2C(=O)Cn2ccc(=O)[nH]c2=O)c2ccccc2)nc1F` [Compound 785, (2S,4R)-1-[2-(2,4-dioxo-1,2,3,4-tetrahydropyrimidin-1-yl)acetyl]-4-fluoro-N-[(S)-[6-fluoro-5-(propan-2-yl)pyridin-2-yl](phenyl)methyl] pyrrolidine-2-carboxamide], the IC50 in assay [1] is 6 nM; in assay [2], 130 nM; in assay [3] it was above 100000 nM.
Turning to `CCn1c(=O)ccn(CC(=O)N2C[C@H](F)C[C@H]2C(=O)N[C@@H](c2ccccc2)c2ccc(C(C)C)c(F)n2)c1=O` [Compound 786, (2S,4R)-1-[2-(3-ethyl-2,4-dioxo-1,2,3,4-tetrahydropyrimidin-1-yl)acetyl]-4-fluoro-N-[(S)-[6-fluoro-5-(propan-2-yl)pyridin-2-yl](phenyl)methyl] pyrrolidine-2-carboxamide], the IC50 in assay [1] was 3 nM; in assay [2], 50 nM; in assay [3] it was above 100000 nM.
With `CC(C)c1ccc([C@@H](NC(=O)[C@@H]2C[C@@H](F)CN2C(=O)Cn2cc(C(F)(F)F)cn2)c2ccccc2)nc1F` [Compound 788], the IC50 in assay [1] was 20 nM; in assay [2] it was 340 nM; in assay [3], above 100000 nM.
As for `CC(C)c1ccc([C@@H](NC(=O)[C@@H]2C[C@@H](F)CN2C(=O)Cn2ccc(C(F)F)n2)c2ccccc2)nc1F` [Compound 789, (2S,4R)-1-{2-[3-(difluoromethyl)-1H-pyrazol-1-yl]acetyl}-4-fluoro-N-[(S)-[6-fluoro-5-(propan-2-yl)pyridin-2-yl](phenyl)methyl] pyrrolidine-2-carboxamide], the figures for the IC50 in assay [1], in assay [2] and in assay [3] were 10 nM, 280 nM and above 100000 nM, respectively.
For `CC(C)c1ccc([C@@H](NC(=O)[C@@H]2C[C@@H](F)CN2C(=O)Cn2ccc(C(F)(F)F)n2)c2ccccc2)nc1F` [Compound 790, (2S,4R)-4-fluoro-N-[(S)-[6-fluoro-5-(propan-2-yl)pyridin-2-yl](phenyl)methyl]-1-{2-[3-(trifluoromethyl)-1H-pyrazol-1-yl]acetyl} pyrrolidine-2-carboxamide], in that order: 8 nM, 250 nM and above 100000 nM.
For the compound `CC(C)c1ccc([C@@H](NC(=O)[C@@H]2C[C@@H](F)CN2C(=O)Cc2ccc(=O)[nH]c2)c2ccccc2)nc1F` [Compound 791, (2S,4R)-4-fluoro-N-[(S)-[6-fluoro-5-(propan-2-yl)pyridin-2-yl](phenyl)methyl]-1-[2-(6-oxo-1,6-dihydropyridin-3-yl)acetyl]pyrrolidine-2-carboxamide], the IC50 in assay [1] was 7 nM; in assay [2], 390 nM; in assay [3], above 100000 nM.
As to `CCn1cc(CC(=O)N2C[C@H](F)C[C@H]2C(=O)N[C@@H](c2ccccc2)c2ccc(C(C)C)c(F)n2)ccc1=O` [Compound 792, (2S,4R)-1-[2-(1-ethyl-6-oxo-1,6-dihydropyridin-3-yl)acetyl]-4-fluoro-N-[(S)-[6-fluoro-5-(propan-2-yl)pyridin-2-yl](phenyl)methyl] pyrrolidine-2-carboxamide], the IC50 in assay [1] is 6 nM; in assay [2] it was 210 nM; in assay [3], above 100000 nM.
For `CC(C)c1ccc([C@@H](NC(=O)[C@@H]2C[C@@H](F)CN2C(=O)Cc2ccc[nH]c2=O)c2ccccc2)nc1F` [Compound 793, (2S,4R)-4-fluoro-N-[(S)-[6-fluoro-5-(propan-2-yl)pyridin-2-yl](phenyl)methyl]-1-[2-(2-oxo-1,2-dihydropyridin-3-yl)acetyl]pyrrolidine-2-carboxamide], in that order: 12 nM, 580 nM and above 100000 nM.
On to `CCn1c(=O)c(C)cn(CC(=O)N2C[C@H](F)C[C@H]2C(=O)N[C@@H](c2ccccc2)c2ccc(C(C)C)c(F)n2)c1=O` [Compound 794, (2S,4R)-1-[2-(3-ethyl-5-methyl-2,4-dioxo-1,2,3,4-tetrahydropyrimidin-1-yl)acetyl]-4-fluoro-N-[(S)-[6-fluoro-5-(propan-2-yl)pyridin-2-yl](phenyl)methyl] pyrrolidine-2-carboxamide], for which the IC50 in assay [1] is 2 nM; in assay [2], 40 nM; in assay [3], above 100000 nM.
For `CCn1cccc(CC(=O)N2C[C@H](F)C[C@H]2C(=O)N[C@@H](c2ccccc2)c2ccc(C(C)C)c(F)n2)c1=O` [Compound 795, (2S,4R)-1-[2-(1-ethyl-2-oxo-1,2-dihydropyridin-3-yl)acetyl]-4-fluoro-N-[(S)-[6-fluoro-5-(propan-2-yl)pyridin-2-yl](phenyl)methyl] pyrrolidine-2-carboxamide], in that order: 11 nM, 240 nM and above 100000 nM.
